Where two headings read alike, the source gives them in different places. Square brackets hold non-standard residues; d marks the D form. Peptide text beside a SMILES is read from it. βAla = NCCC(=O)O
Assays:
NPM-Bax complex [1] = target: T1, NPM-Bax complex (Mus musculus, UniProt Q61937); assay: NPM-Bax interaction, Bax immunoprecipitates from renal cortical homogenates after ischemia; assay type: in vivo, murine; details: for Bax-NPM interaction in postischemic renal homogenates: peptide injected 3 hours after bilateral renal ischemia, FIG. 9B
T1 construct: from tissue; host or cells: renal cortical homogenate of C57BL/6J mice after bilateral renal pedicle clamping
T1 sequence (Q61937 whole entry, one chain of several): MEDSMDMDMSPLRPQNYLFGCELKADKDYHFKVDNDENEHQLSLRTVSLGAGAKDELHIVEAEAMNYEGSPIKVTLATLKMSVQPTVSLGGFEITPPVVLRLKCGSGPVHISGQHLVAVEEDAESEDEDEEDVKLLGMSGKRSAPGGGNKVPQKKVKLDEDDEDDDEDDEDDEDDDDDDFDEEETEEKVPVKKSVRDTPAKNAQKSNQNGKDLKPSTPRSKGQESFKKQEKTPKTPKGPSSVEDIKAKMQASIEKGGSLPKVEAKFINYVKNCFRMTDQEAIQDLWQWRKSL
Method: Similar amounts of Bax were detected in each lane, and input protein amounts for each sample were identical. IB, immunoblot; IP, immunoprecipitation.
Cell, tissue, and urinary proteins were harvested using PD buffer containing 40 mM Tris-HCl, pH 8.0, 500 mM NaCl, 0.1% Nonidet P-40, 6 mM EGTA, and a protease inhibitor cocktail (Set I; Calbiochem, San Diego, CA). NPM was immunoprecipitated overnight with NPM antibodies (catalog no. B0556; Sigma-Aldrich) in the presence of protein A/G-agarose beads at 4° C. NPM accumulation was measured in cytosolic samples extracted with low-dose digitonin ([…]).13 Cytosolic proteins were extracted from renal cortical tissue samples using an extraction kit (Biochain Institute, Newark, CA). Briefly, 50-100 mg of kidney cortex tissue was minced on ice and spin washed with 1 ml ice-cold wash buffer before adding […] of buffer C. The mixture was rotated at 4° C. for 20 minutes and then centrifuged at 18,0003 g at 4° C. for 20 minutes before being harvested. Protein levels were measured with the bicinchoninic acid assay (Thermo Scientific, Rockford, IL).
(§1) NPM is a relevant therapeutic target in human AKI. Primary human proximal tubule epithelial cells (PTEC) derived from cadaveric kidneys were subjected to ischemic stress (transient ATP depletion) in the presence of specific NPM siRNA or non-sense siRNA. […] Thus, manipulating NPM is an effective maneuver. […] Small peptides of 30 amino acids or less are sufficiently specific to minimize off target effects and also reduce the risk of eliciting an antibody response that causes tachyphylaxis. Peptides were commercially synthesized and fused to a nuclear localizing sequence (this NLS has no functional relationship to the “NPM NLS” that regulates NPM translocation). The NLS-CPP markedly increases renal accumulation of small peptides8 as well as in the proximal tubule. […] To determine its effect on NPM-Bax complex formation, active Bax was immunoprecipitated from PTEC rendered ischemic with an antibody directed against the 6A7 epitope. The precipitates were subjected to immunoblot analysis using an anti-NPM antibody. […] NPM and Bax accumulation was measured in mitochondria isolated from human PTEC after ischemic stress. […] This is likely due to the prolonged half-life (about 80 hr) of the peptide in vitro and in vivo due to the presence of an AC modification slows degradation.

NPM-Bax complex [2] = assay: NPM-Bax complex formation, 6A7 Bax immunoprecipitation and NPM immunoblot in ischemic PTEC; assay type: cell-based; details: ischemic primary murine PTEC; compared to size matched random peptide
Excerpt: as §1

primary human PTECs = assay type: cell-based; design: Improvement in cell survival: dose or concentration left out as unconfirmed; details: for Cell survival after ischemic stress: PTECs, ATP depletion, versus control peptide
Method: Exposure to metabolic inhibitors is an established model of ischemic stress that reduces ATP content to, 10% of baseline values until recovery is initiated.24,26 To achieve ATP depletion, cells were washed three times in glucose-free DMEM (Invitrogen, Carlsbad, CA) followed by incubation in glucose-free DMEM containing sodium cyanide (5 mM) and 2-deoxy-glucose (5 mM) for the indicated times.26
Recovery was initiated by replacing the stress medium described above with complete primary cell culture medium containing glucose and substrates that support the rapid restoration of cell ATP.27
For in vitro testing in primary human PTECs, peptides ([…]) were tested that replicate the Bax domain responsible for binding NPM,34 or two peptides designed to interfere with NPM function were compared with a random nonspecific sequence of the same length (control). Peptides intended to interfere with NPM function overlap key phosphorylation sites located at the NPM amino terminus (peptide 2) or carboxy terminus (peptide 3) detected by mass spectrometry. To improve cell uptake, all peptides contained a cell-penetrating sequence13. For in vivo experiments, a renal-targeting sequence (NLS) was added to enhance renal peptide uptake.35 Peptides were commercially synthesized (Biomatik, Wilmington, DE) J Am Soc Nephrol 30: ccc-ccc, 2018 Nucleophosmin in AKI 3www.jasn.org BASIC RESEARCHas follows: NPM-Bax blocking peptide: Ac-KKKRKV-(bA)-[…]-COOH (SEQ ID NO: 8); peptide 2: AC-PKKKRKV-(bA)-[…]-COOH (SEQ ID NO: 9); and peptide 3: AC-PKKKRKV-(bA)-ESFKK-QEKTPKTPKGPSSVED-IKAK-COOH (SEQ ID NO: 10). A single dose ([…] of the NPM-Bax blocking or control peptide) was administered by tail vein injection immediately after release of the pedicle clamps(0 timepoint) […] in each experimental group. A total of 42 control and 56 experimental animals were studied.
Transient exposure to metabolic inhibitors replicates ischemia in vivo by activating Bax and causing cell death.13,29,36-38 Cell viability was assayed using a modified colorimetric technique (MTTassay).37 The number of surviving cells is expressed as a percentage of viable control cells detected at baseline. Serum BUN and creatinine levels were measured in tail vein blood samples for 7 days after ischemia using QuantiChrom BUN or creatinine assay kits (BioAssay Systems, Hayward, CA) according to the manufacturer's instructions.

[3] = Peptide half-life in vitro and in vivo

CC[C@H](C)[C@H](NC(=O)[C@@H](NC(=O)[C@H](CC(C)C)NC(=O)[C@H](CO)NC(=O)[C@H](C)NC(=O)[C@@H](NC(=O)[C@H](CC(C)C)NC(=O)[C@@H](NC(=O)CNC(=O)[C@H](C)NC(=O)[C@@H](NC(=O)[C@H](Cc1ccccc1)NC(=O)[C@@H](NC(=O)[C@@H](NC(=O)[C@@H](NC(=O)[C@@H](NC(=O)CCNC(=O)[C@@H](NC(=O)[C@H](CCCCN)NC(=O)[C@H](CCCNC(=N)N)NC(=O)[C@H](CCCCN)NC(=O)[C@H](CCCCN)NC(=O)[C@H](CCCCN)NC(C)=O)C(C)C)[C@@H](C)O)C(C)C)[C@@H](C)O)[C@@H](C)CC)C(C)C)C(C)C)[C@@H](C)O)[C@@H](C)O)C(=O)N[C@@H](Cc1c[nH]c2ccccc12)C(=O)N[C@@H](CCCCN)C(=O)N[C@@H](CCCCN)C(=O)N[C@@H](CCSC)C(=O)NCC(=O)O [Peptide #1] (Ac-KKKRKV[βAla]TVTIFVAGVLTASLTIWKKMG-OH)
Decrease of NPM-Bax complex formation in vivo (renal cortical homogenates) (NPM-Bax complex [1]; after ischemia by pedicle clamping): about 50% | Bax-NPM interaction in postischemic renal homogenates (NPM-Bax complex [1]): markedly decreases | Bax-NPM interaction in postischemic renal homogenates (NPM-Bax complex [1]; listed as Blocking peptide): markedly reduced | Bax-NPM interaction in postischemic renal homogenates (NPM-Bax complex [1]; listed as NPM-Bax blocking peptide (Peptide #1)): decreases | Decrease of NPM-Bax complex formation (NPM-Bax complex [2]): about 50% | Improvement in cell survival (primary human PTECs): 25% | Cell survival after ischemic stress (primary human PTECs; listed as Bax peptide): significantly improve cell survival | Cell survival after ischemic stress (primary human PTECs; listed as NPM blocking peptide): improves renal cell survival | half-life [3]: ~80 h

From patent publication US12018058B2, “Compositions and methods for diagnosing and/or treating kidney injury” (Boston Medical Center Corporation, priority 2018, dated 2024)
